pIC50: −log10 of the molar value.
Tested on: HeLa
Assay: Proliferation assay (crystal violet), HeLa
Type: cell-based
Settings: HeLa cells; 4 days incubation; crystal violet staining; read-out: IC50 inhibition of proliferation, HeLa
Outline: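 Crystal violet proliferation readout, 4-day compound incubation, 0.001–10 μM, final DMSO 0.5%. Zero-point plate stained at time of dosing set as 0%, untreated control as 100%; IC50 via 4-parameter fit.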

For `Cc1nsc(Nc2cnc(C(F)(F)F)cn2)c1C(=O)Nc1ccc(F)c(OCC2CCN(CC(F)(F)F)C2)c1` (centres unmarked) [Example 318, N-(4-fluoro-3-{[1-(2,2,2-trifluoroethyl)pyrrolidin-3-yl]methoxy}phenyl)-3-methyl-5-{[5-(trifluoromethyl)pyrazin-2-yl]amino}-1,2-thiazole-4-carboxamide], the pIC50 was 6.39.

Same assay, conditions: Homo sapiens, HeLa, 96 h, HeLa cells; 4 days incubation; crystal violet staining; read-out: IC50 inhibition of proliferation, HeLa

Going from `COCCOc1ccc(NC(=O)c2c(C)nsc2Nc2nc3c(C(F)(F)F)cccc3s2)cc1F` [Example 1, N-[3-Fluoro-4-(2-methoxyethoxy)phenyl]-3-methyl-5-{[4-(trifluoromethyl)-1,3-benzothiazol-2-yl]amino}-1,2-thiazole-4-carboxamide] to `Cc1nsc(Nc2nc3c(C(F)(F)F)cccc3s2)c1C(=O)Nc1ccc(OCCO)c(F)c1` [Example 4, N-[3-Fluoro-4-(2-hydroxyethoxy)phenyl]-3-methyl-5-{[4-(trifluoromethyl)-1,3-benzothiazol-2-yl]amino}-1,2-thiazole-4-carboxamide], the pIC50 falls from 6.24 to 5.74 (0.50 log units).

First: Cc1nsc(Nc2nc3c(C(F)(F)F)cccc3s2)c1C(=O)Nc1ccc(OCCO)nc1 [Example 2, N-[6-(2-Hydroxyethoxy)pyridin-3-yl]-3-methyl-5-{[4-(trifluoromethyl)-1,3-benzo-thiazol-2-yl]amino}-1,2-thiazole-4-carboxamide]
Second: COCCOc1ccc(NC(=O)c2c(C)nsc2Nc2nc3c(C(F)(F)F)cccc3s2)cn1 [Example 3, N-[6-(2-Methoxyethoxy)pyridin-3-yl]-3-methyl-5-{[4-(trifluoromethyl)-1,3-benzo-thiazol-2-yl]amino}-1,2-thiazole-4-carboxamide]
The pIC50 of the first is 0.73 log units lower: 5.31 for the first, 6.04 for the second.

Compared with `Cc1nsc(Nc2cnc(C(F)(F)F)cn2)c1C(=O)Nc1ccc(OC2CCN(C(=O)OC(C)(C)C)CC2)nc1` [Example 5, tert-Butyl 4-[(5-{[(3-methyl-5-{[5-(trifluoromethyl)pyrazin-2-yl]amino}-1,2-thiazol-4-yl)carbonyl]amino}pyridin-2-yl)oxy]piperidine-1-carboxylate], `Cc1nsc(Nc2cnccn2)c1C(=O)Nc1ccc(OC2CCCN(C(=O)OC(C)(C)C)C2)nc1` (centres unmarked) [Example 41, tert-Butyl 3-{[5-({[3-methyl-5-(pyrazin-2-ylamino)-1,2-thiazol-4-yl]carbonyl}amino)-pyridin-2-yl]oxy}piperidine-1-carboxylate] is 1.25 log units lower in pIC50: 6.25 for the first, 5.00 for the second. The first is the more potent here.

`Cc1nsc(Nc2cc(C#N)ccn2)c1C(=O)Nc1ccc(OC2CCCNC2)nc1` (centres unmarked) [Example 35, 5-[(4-Cyanopyridin-2-yl)amino]-3-methyl-N-[6-(piperidin-3-yloxy)pyridin-3-yl]-1,2-thiazole-4-carboxamide] and `Cc1nsc(Nc2ccc(C#N)cn2)c1C(=O)Nc1ccc(OC2CCCNC2)nc1` (centres unmarked) [Example 37, 5-[(5-Cyanopyridin-2-yl)amino]-3-methyl-N-[6-(piperidin-3-yloxy)pyridin-3-yl]-1,2-thiazole-4-carboxamide] are the same in pIC50: 5.00 for the first, 5.00 for the second.

`Cc1nsc(Nc2ccc(C#N)cn2)c1C(=O)Nc1ccc(OC2CCCN(C(=O)OC(C)(C)C)C2)nc1` (centres unmarked) [Example 36, tert-Butyl 3-({5-[({5-[(5-cyanopyridin-2-yl)amino]-3-methyl-1,2-thiazol-4-yl}-carbonyl)amino]pyridin-2-yl}oxy)piperidine-1-carboxylate] and `Cc1nsc(Nc2ccc(C#N)cn2)c1C(=O)Nc1ccc(OC2CCCN(CC(F)F)C2)nc1` (centres unmarked) [Example 39, 5-[(5-Cyanopyridin-2-yl)amino]-N-(6-{[1-(2,2-difluoroethyl)piperidin-3-yl]oxy}-pyridin-3-yl)-3-methyl-1,2-thiazole-4-carboxamide] are the same in pIC50: 5.96 for the first, 5.96 for the second.

Compared with `Cc1nsc(Nc2ccc(C#N)cn2)c1C(=O)Nc1ccc(OC2CCCN(CCF)C2)nc1` (centres unmarked) [Example 38, 5-[(5-Cyanopyridin-2-yl)amino]-N-(6-{[1-(2-fluoroethyl)piperidin-3-yl]oxy}pyridin-3-yl)-3-methyl-1,2-thiazole-4-carboxamide], `Cc1nsc(Nc2ccc(C#N)cn2)c1C(=O)Nc1ccc(OC2CCCN(CC(F)(F)F)C2)nc1` (centres unmarked) [Example 40, 5-[(5-Cyanopyridin-2-yl)amino]-3-methyl-N-(6-{[1-(2,2,2-trifluoroethyl)piperidin-3-yl]oxy}pyridin-3-yl)-1,2-thiazole-4-carboxamide] is 1.18 log units higher in pIC50: 5.09 for the first, 6.27 for the second.

Compared with `Cc1nsc(Nc2cnc3ccccc3n2)c1C(=O)Nc1ccc(OCCCNC(=O)OC(C)(C)C)nc1` [Example 42, tert-Butyl (3-{[5-({[3-methyl-5-(quinoxalin-2-ylamino)-1,2-thiazol-4-yl]carbonyl}-amino)pyridin-2-yl]oxy}propyl)carbamate], `Cc1nsc(Nc2cnccn2)c1C(=O)Nc1ccc(OCCCNC(=O)OC(C)(C)C)nc1` [Example 47, tert-Butyl (3-{[5-({[3-methyl-5-(pyrazin-2-ylamino)-1,2-thiazol-4-yl]carbonyl}-amino)pyridin-2-yl]oxy}propyl)carbamate] is 0.64 log units lower in pIC50: 5.64 for the first, 5.00 for the second. The first is the more potent here.

`Cc1nsc(Nc2cc(C#N)ccn2)c1C(=O)Nc1ccc(OCCCNC(=O)OC(C)(C)C)nc1` [Example 43, tert-Butyl [3-({5-[({5-[(4-cyanopyridin-2-yl)amino]-3-methyl-1,2-thiazol-4-yl}-carbonyl)amino]pyridin-2-yl}oxy)propyl]carbamate] and `Cc1nsc(Nc2ccc(C#N)cn2)c1C(=O)Nc1ccc(OCCCNC(=O)OC(C)(C)C)nc1` [Example 46, tert-Butyl [3-({5-[({5-[(5-cyanopyridin-2-yl)amino]-3-methyl-1,2-thiazol-4-yl}-carbonyl)amino]pyridin-2-yl}oxy)propyl]carbamate] are the same in pIC50: 5.00 for the first, 5.00 for the second.

`Cc1nsc(Nc2cc(C#N)ccn2)c1C(=O)Nc1ccc(OCCCN)nc1` [Example 44, N-[6-(3-Aminopropoxy)pyridin-3-yl]-5-[(4-cyanopyridin-2-yl)amino]-3-methyl-1,2-thiazole-4-carboxamide] and `Cc1nsc(Nc2cc(C#N)ccn2)c1C(=O)Nc1ccc(OCCCNCC(F)F)nc1` [Example 45, 5-[(4-Cyanopyridin-2-yl)amino]-N-(6-{3-[(2,2-difluoroethyl)amino]propoxy}pyridin-3-yl)-3-methyl-1,2-thiazole-4-carboxamide] are the same in pIC50: 5.00 for the first, 5.00 for the second.

Compared with `Cc1nsc(Nc2cnccn2)c1C(=O)Nc1ccc(OCCCN)nc1` [Example 48, N-[6-(3-Aminopropoxy)pyridin-3-yl]-3-methyl-5-(pyrazin-2-ylamino)-1,2-thiazole-4-carboxamide], `CCCN1CCC(COc2ccc(NC(=O)c3c(C)nsc3Nc3cnc(C(F)(F)F)cn3)cn2)C(F)(F)C1` (centres unmarked) [Example 394, N-{6-[(3,3-difluoro-1-propylpiperidin-4-yl)methoxy]pyridin-3-yl}-3-methyl-5-{[5-(trifluoromethyl)pyrazin-2-yl]amino}-1,2-thiazole-4-carboxamide] is 1.42 log units higher in pIC50: 5.00 for the first, 6.42 for the second.

Compared with `Cc1nsc(Nc2cnc3ccccc3n2)c1C(=O)Nc1cccc(C(=O)OC(C)(C)C)c1` [Example 49, tert-Butyl 3-({[3-methyl-5-(quinoxalin-2-ylamino)-1,2-thiazol-4-yl]carbonyl}amino)-benzoate], `COC(=O)c1cccc(NC(=O)c2c(C)nsc2Nc2cnc3ccccc3n2)c1` [Example 50, Methyl 3-({[3-methyl-5-(quinoxalin-2-ylamino)-1,2-thiazol-4-yl]carbonyl}amino)-benzoate] is 0.33 log units lower in pIC50: 6.05 for the first, 5.72 for the second.

First: Cc1nsc(Nc2cnc3ccccc3n2)c1C(=O)Nc1cccc(C(=O)O)c1 [Example 51, 3-({[3-Methyl-5-(quinoxalin-2-ylamino)-1,2-thiazol-4-yl]carbonyl}amino)benzoic acid]
Second: Cc1nsc(Nc2cnc3ccccc3n2)c1C(=O)Nc1cccc(C(=O)NC(C)(C)C)c1 [Example 53, N-[3-(tert-Butylcarbamoyl)-phenyl]-3-methyl-5-(quinoxalin-2-ylamino)-1,2-thiazole-4-carboxamide]
The pIC50 of the first is 0.57 log units lower: 5.00 for the first, 5.57 for the second.

`Cc1nsc(Nc2cnc3ccccc3n2)c1C(=O)Nc1cccc(C(=O)N2CCOCC2)c1` [Example 52, 3-Methyl-N-[3-(morpholin-4-ylcarbonyl)phenyl]-5-(quinoxalin-2-ylamino)-1,2-thiazole-4-carboxamide] and `Cc1nsc(Nc2cnc3ccccc3n2)c1C(=O)Nc1cccc(C(=O)N2CCN(C(=O)OC(C)(C)C)CC2)c1` [Example 55, tert-Butyl 4-[3-({[3-methyl-5-(quinoxalin-2-ylamino)-1,2-thiazol-4-yl]carbonyl}amino)-benzoyl]piperazine-1-carboxylate] are the same in pIC50: 5.00 for the first, 5.00 for the second.

`Cc1nsc(Nc2cnc3ccccc3n2)c1C(=O)Nc1cccc(C(=O)NCC(=O)OC(C)(C)C)c1` [Example 54, tert-Butyl N-[3-({[3-methyl-5-(quinoxalin-2-ylamino)-1,2-thiazol-4-yl]carbonyl}amino)-benzoyl]glycinate] and `Cc1nsc(Nc2cnc3ccccc3n2)c1C(=O)Nc1cccc(C(=O)N[C@@H](CCC(N)=O)C(=O)OC(C)(C)C)c1` [Example 56, tert-butyl N^2-[3-({[3-methyl-5-(quinoxalin-2-ylamino)-1,2-thiazol-4-yl]carbonyl}amino)-benzoyl]glutaminate] are within 0.2 log units of each other in pIC50: 5.00 for the first, 5.01 for the second.

Compared with `Cc1nsc(Nc2cnc3ccccc3n2)c1C(=O)Nc1cccc(C(=O)N[C@H](C(=O)OC(C)(C)C)[C@@H](C)OC(C)(C)C)c1` [Example 57, tert-Butyl O-tert-butyl-N-[3-({[3-methyl-5-(quinoxalin-2-ylamino)-1,2-thiazol-4 yl]carbonyl}amino)-benzoyl]threoninate], `Cc1nsc(Nc2cnc(C(F)(F)F)cn2)c1C(=O)Nc1ccc(F)c(OCC2CCN(CC(F)(F)F)C2)c1` (centres unmarked) [Example 318, N-(4-fluoro-3-{[1-(2,2,2-trifluoroethyl)pyrrolidin-3-yl]methoxy}phenyl)-3-methyl-5-{[5-(trifluoromethyl)pyrazin-2-yl]amino}-1,2-thiazole-4-carboxamide] is 1.66 log units higher in pIC50: 5.00 for the first, 6.66 for the second.

Work on `Cc1nsc(Nc2cnc(C(F)(F)F)cn2)c1C(=O)Nc1ccc(OC[C@H]2CCCN(CCC(F)(F)F)C2)nc1` [Example 378, 3-methyl-5-{[5-(trifluoromethyl)pyrazin-2-yl]amino}-N-(6-{[(3S)-1-(3,3,3-trifluoropropyl)piperidin-3-yl]methoxy}pyridin-3-yl)-1,2-thiazole-4-carboxamide] yielded a pIC50 of 6.54.

Reference: patent US20170334899A1, “AMINO-SUBSTITUTED ISOTHIAZOLES” (Bayer Pharma Aktiengesellschaft, priority 2014, published 2017)
